Laboratory results as given in the NIST ThermoML archive (doi:10.1021/je700438d).

Test: mn = molality of the nth substance listed, in mol/kg
Conditions: Liquid, Vibrating tube method

[Cl-].[Li+] [lithium chloride] + CCO
Conditions | mass density [kg/m3]
298.15 K, 120 kPa, m1 = 2.88 | 865.97
298.15 K, 180 kPa, m1 = 0.3023 | 795.82
298.15 K, 210 kPa, m1 = 0.1049 | 789.29
298.15 K, 210 kPa, m1 = 1.222 | 823.5
298.15 K, 250 kPa, m1 = 0.5873 | 804.88
298.15 K, 410 kPa, m1 = 2.022 | 845.2
298.15 K, 5040 kPa, m1 = 0.3023 | 799.96
298.15 K, 5040 kPa, m1 = 2.88 | 869.78
298.15 K, 5120 kPa, m1 = 0.1049 | 793.51
298.15 K, 5230 kPa, m1 = 2.022 | 849.07
298.15 K, 5470 kPa, m1 = 1.222 | 827.84
298.15 K, 5520 kPa, m1 = 0.5873 | 809.31
298.15 K, 9820 kPa, m1 = 1.222 | 831.28
298.15 K, 10030 kPa, m1 = 0.1049 | 797.57
298.15 K, 10050 kPa, m1 = 2.022 | 852.76
298.15 K, 10240 kPa, m1 = 0.3023 | 804.22
298.15 K, 10320 kPa, m1 = 2.88 | 873.67
298.15 K, 10440 kPa, m1 = 0.5873 | 813.28
298.15 K, 14990 kPa, m1 = 1.222 | 835.2
298.15 K, 15030 kPa, m1 = 2.022 | 856.4
298.15 K, 15170 kPa, m1 = 0.5873 | 816.95
298.15 K, 15240 kPa, m1 = 0.1049 | 801.71
298.15 K, 15620 kPa, m1 = 0.3023 | 808.44
298.15 K, 15640 kPa, m1 = 2.88 | 877.37
298.15 K, 19040 kPa, m1 = 1.222 | 838.14
298.15 K, 19250 kPa, m1 = 0.5873 | 819.98
298.15 K, 20050 kPa, m1 = 0.3023 | 811.77
298.15 K, 20060 kPa, m1 = 0.1049 | 805.39
298.15 K, 20120 kPa, m1 = 2.022 | 859.94
298.15 K, 20610 kPa, m1 = 2.88 | 880.65
298.15 K, 25080 kPa, m1 = 2.88 | 883.43
298.15 K, 25410 kPa, m1 = 0.1049 | 809.29
298.15 K, 25460 kPa, m1 = 1.222 | 842.57
298.15 K, 25610 kPa, m1 = 2.022 | 863.54
298.15 K, 25640 kPa, m1 = 0.5873 | 824.52
298.15 K, 25840 kPa, m1 = 0.3023 | 815.92
298.15 K, 30060 kPa, m1 = 0.1049 | 812.53
298.15 K, 30080 kPa, m1 = 2.022 | 866.32
298.15 K, 30110 kPa, m1 = 0.5873 | 827.53
298.15 K, 30190 kPa, m1 = 1.222 | 845.65
298.15 K, 30410 kPa, m1 = 2.88 | 886.56
298.15 K, 30560 kPa, m1 = 0.3023 | 819.15
298.15 K, 35090 kPa, m1 = 2.88 | 889.13
298.15 K, 35410 kPa, m1 = 2.022 | 869.43
298.15 K, 35560 kPa, m1 = 0.5873 | 831.01
298.15 K, 35710 kPa, m1 = 0.1049 | 816.28
298.15 K, 35840 kPa, m1 = 0.3023 | 822.58
298.15 K, 35870 kPa, m1 = 1.222 | 849.13
298.15 K, 39820 kPa, m1 = 0.5873 | 833.6
298.15 K, 39910 kPa, m1 = 0.3023 | 825.1
298.15 K, 39940 kPa, m1 = 2.022 | 871.92
298.15 K, 39980 kPa, m1 = 0.1049 | 818.97
298.15 K, 39980 kPa, m1 = 2.88 | 891.64
298.15 K, 40070 kPa, m1 = 1.222 | 851.57
323.15 K, 120 kPa, m1 = 0.1049 | 767.47
323.15 K, 140 kPa, m1 = 0.3023 | 774.35
323.15 K, 180 kPa, m1 = 2.88 | 845.88
323.15 K, 230 kPa, m1 = 2.022 | 824.57
323.15 K, 240 kPa, m1 = 0.5873 | 783.81
323.15 K, 410 kPa, m1 = 1.222 | 802.86
323.15 K, 5030 kPa, m1 = 0.5873 | 788.42
323.15 K, 5070 kPa, m1 = 1.222 | 807.19
323.15 K, 5140 kPa, m1 = 0.1049 | 772.47
323.15 K, 5210 kPa, m1 = 0.3023 | 779.31
323.15 K, 5410 kPa, m1 = 2.022 | 829.25
323.15 K, 5410 kPa, m1 = 2.88 | 850.34
323.15 K, 10020 kPa, m1 = 0.1049 | 777.11
